# In patent US12540131B2 (Merck Sharp & Dohme LLC, priority 2019, dated 2026):
# Target: GST tagged truncated human mutant G2019S LRRK2 (Homo sapiens (Human), UniProt Q5S007, G2019S)
# Assay: LRRK2 Km ATP LanthaScreen Assay
# Type: biochemical
# Conditions: G2019S LRRK2, 134 μM ATP (Km ATP), mean values
# Outline: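 Enzyme (GST-tagged, truncated) was preincubated with compound for 15 min at RT in 50 mM Tris pH 8.5, 10 mM MgCl2, 0.01% Brij-35, 1 mM EGTA, 2 mM DTT and 0.05 mM orthovanadate. Fluorescein-LRRKtide and 134 μM ATP (Km) were then added for 90 min. EDTA and Tb-anti-pERM antibody stopped the reaction; the TR-FRET 520/495 ratio gave 4-parameter IC50s, reported as mean pIC50.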
# Sequence of GST tagged truncated human mutant G2019S LRRK2 (Q5S007 970-2527 G2019S): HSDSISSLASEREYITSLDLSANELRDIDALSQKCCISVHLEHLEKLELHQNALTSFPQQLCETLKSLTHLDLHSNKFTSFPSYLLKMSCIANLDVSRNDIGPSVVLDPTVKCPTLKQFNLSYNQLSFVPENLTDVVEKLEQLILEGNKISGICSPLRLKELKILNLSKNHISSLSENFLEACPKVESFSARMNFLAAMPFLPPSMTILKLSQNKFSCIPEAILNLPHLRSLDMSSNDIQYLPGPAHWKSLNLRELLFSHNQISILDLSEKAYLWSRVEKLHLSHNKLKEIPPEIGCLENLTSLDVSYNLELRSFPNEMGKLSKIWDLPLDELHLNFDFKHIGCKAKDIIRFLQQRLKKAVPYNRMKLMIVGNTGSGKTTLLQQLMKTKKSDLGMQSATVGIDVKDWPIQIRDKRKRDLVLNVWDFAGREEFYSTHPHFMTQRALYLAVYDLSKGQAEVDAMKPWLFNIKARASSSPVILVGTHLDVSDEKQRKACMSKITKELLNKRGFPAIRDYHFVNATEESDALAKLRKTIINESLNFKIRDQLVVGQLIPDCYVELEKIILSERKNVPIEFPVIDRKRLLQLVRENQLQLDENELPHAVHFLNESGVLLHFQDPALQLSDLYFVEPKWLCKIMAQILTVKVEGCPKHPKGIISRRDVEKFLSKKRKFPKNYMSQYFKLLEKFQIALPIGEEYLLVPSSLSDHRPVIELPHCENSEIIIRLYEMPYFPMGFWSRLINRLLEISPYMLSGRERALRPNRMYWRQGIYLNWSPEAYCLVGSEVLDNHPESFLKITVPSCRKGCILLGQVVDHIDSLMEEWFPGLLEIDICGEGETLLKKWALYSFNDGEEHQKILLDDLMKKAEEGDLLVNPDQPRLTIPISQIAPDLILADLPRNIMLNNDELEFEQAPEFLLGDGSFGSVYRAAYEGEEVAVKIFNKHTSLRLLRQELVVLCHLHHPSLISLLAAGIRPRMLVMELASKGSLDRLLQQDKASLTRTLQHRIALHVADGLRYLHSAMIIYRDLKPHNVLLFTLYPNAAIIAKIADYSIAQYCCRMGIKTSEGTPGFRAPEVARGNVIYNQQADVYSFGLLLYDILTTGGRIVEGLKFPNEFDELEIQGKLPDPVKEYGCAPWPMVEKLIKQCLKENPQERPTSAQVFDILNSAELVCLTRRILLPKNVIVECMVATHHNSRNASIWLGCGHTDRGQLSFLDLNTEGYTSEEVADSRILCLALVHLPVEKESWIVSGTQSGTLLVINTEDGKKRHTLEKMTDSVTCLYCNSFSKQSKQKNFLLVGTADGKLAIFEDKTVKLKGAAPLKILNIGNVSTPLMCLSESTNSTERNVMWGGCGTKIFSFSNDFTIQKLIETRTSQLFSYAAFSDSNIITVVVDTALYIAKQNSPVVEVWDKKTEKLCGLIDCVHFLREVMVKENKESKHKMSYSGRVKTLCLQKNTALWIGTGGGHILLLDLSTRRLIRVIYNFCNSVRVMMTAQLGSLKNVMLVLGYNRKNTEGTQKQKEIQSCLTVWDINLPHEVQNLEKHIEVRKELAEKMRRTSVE
row,Structure (SMILES),LRRK2 pIC50
1,"Cc1cc2cnc(Nc3cnn(C4CC4(F)F)c3C)nc2cc1[C@@H]1CCN([C@@H]2COC[C@@H]2O)C[C@H]1F (single isomer, unassigned) [Ex-4.146, (R)(3S,4S)(3S,4S) or (R)(3S,4S)(3R,4R) or (R)(3R,4R)(3S,4S) or (R)(3R,4R)(3R,4R) or (S)(3S,4S)(3S,4S) or (S)(3S,4S)(3R,4R) or (S)(3R,4R)(3S,4S) or (S)(3R,4R)(3R,4R) 4-[4-(2-{[1-(2,2-difluorocyclopropyl)-5-methyl-1H-pyrazol-4-yl]amino}-6-methylquinazolin-7-yl)-3-fluoropiperidin-1-yl]oxolan-3-ol]",>9.20
2,"Cc1cc2cnc(Nc3cnn(C4CC4(F)F)c3Cl)nc2cc1[C@@H]1CCN(C2COC[C@@H]2O)C[C@H]1F (single isomer, unassigned) [Ex-4.137, (R)(3S,4S)(3S,4S) or (R)(3S,4S)(3R,4R) or (R)(3R,4R)(3S,4S) or (R)(3R,4R)(3R,4R) or (S)(3S,4S)(3S,4S) or (S)(3S,4S)(3R,4R) or (S)(3R,4R)(3S,4S) or (S)(3R,4R)(3R,4R) 4-[4-(2-{[5-chloro-1-(2,2-difluorocyclopropyl)-1H-pyrazol-4-yl]amino}-6-methylquinazolin-7-yl)-3-fluoropiperidin-1-yl]oxolan-3-ol]",>9.20
3,"Cc1cc2cnc(Nc3cnn(CC(C)(C)O)c3C)nc2cc1[C@H]1CCN(C2COC2)C[C@@H]1F (single isomer, unassigned) [Ex-5.6, (3S,4S) or (3R,4R) 1-[4-({7-[3-fluoro-1-(oxetan-3-yl)piperidin-4-yl]-6-methylquinazolin-2-yl}amino)-5-methyl-1H-pyrazol-1-yl]-2-methylpropan-2-ol]",8.68
4,"Cc1c(Nc2ncc3cc(Cl)c(C4CCN(C5CCC(CC#N)C5)CC4)cc3n2)cnn1C1CC1 (single isomer, unassigned) [Ex-4.168, (1R,3R) or (1S,3R) or (1R,3S) or (1S,3S) [3-(4-{6-chloro-2-[(1-cyclopropyl-5-methyl-1H-pyrazol-4-yl)amino]quinazolin-7-yl}piperidin-1-yl)cyclopentyl]acetonitrile]",8.88
5,"CC1(n2ncc(Nc3ncc4cc(Cl)c(C5(F)CCN(C6COC6)CC5)cc4n3)c2Cl)CC1 [Ex-4.24, 6-chloro-N-[5-chloro-1-(1-methylcyclopropyl)-1H-pyrazol-4-yl]-7-[4-fluoro-1-(oxetan-3-yl)piperidin-4-yl]quinazolin-2-amine]",>9.20
6,"FC(F)Cn1ncc(Nc2ncc3cc(Cl)c([C@H]4CCN(C5COC5)C[C@@H]4F)cc3n2)c1Cl (single isomer, unassigned) [Ex-4.38, (3S,4S) or (3R,4R) 6-chloro-N-[5-chloro-1-(2,2-difluoroethyl)-1H-pyrazol-4-yl]-7-[3-fluoro-1-(oxetan-3-yl)piperidin-4-yl]quinazolin-2-amine]",9.11
7,"N#CC1(Cn2ncc(Nc3ncc4cc(Cl)c(C5CCN(C6COC6)CC5)cc4n3)c2Cl)CC1 [Ex-8.24, 1-{[5-chloro-4-({6-chloro-7-[1-(oxetan-3-yl)piperidin-4-yl]quinazolin-2-yl}amino)-1H-pyrazol-1-yl]methyl}cyclopropane-1-carbonitrile]",8.92
8,"O=S1(=O)CC(N2CCC(c3cc4nc(Nc5cnn(CC(F)F)c5Cl)ncc4cc3Cl)CC2)C1 [Ex-4.14, 3-(4-(6-chloro-2-((5-chloro-1-(2,2-difluoroethyl)-1H-pyrazol-4-yl)amino)quinazolin-7-yl)piperidin-1-yl)thietane 1,1-dioxide]",>9.20
9,"Cn1nc(C(F)(F)F)cc1Nc1ncc2cc(Cl)c([C@@H]3CCN([C@]4(C)COC[C@@H]4O)C[C@H]3F)cc2n1 (single isomer, unassigned) [Ex-4.251, (3S,4S)(3S,4S) or (3S,4S)(3R,4R) or (3R,4R)(3S,4S) or (3R,4R)(3R,4R) 4-[4-(6-chloro-2-{[1-methyl-3-(trifluoromethyl)-1H-pyrazol-5-yl]amino}quinazolin-7-yl)-3-fluoropiperidin-1-yl]-4-methyloxolan-3-ol]",9.05
10,"Cc1nsc(Nc2ncc3cc(Cl)c([C@@H]4CCN(C5CCOC5)C[C@H]4F)cc3n2)c1Cl (single isomer, unassigned) [Ex-8.20, (3S,4S)(S) or (3S,4S)(R) or (3R,4R)(S) or (3R,4R)(R) 6-chloro-N-(4-chloro-3-methyl-1,2-thiazol-5-yl)-7-[3-fluoro-1-(oxolan-3-yl)piperidin-4-yl]quinazolin-2-amine]",8.53
11,"Cc1c(Nc2ncc3cc(Cl)c([C@@H]4CCN(C5CCCC5O)C[C@H]4F)cc3n2)cnn1C1CC1 (single isomer, unassigned) [Ex-4.159, (1S,2R)(3S,4S) or (1R,2S)(3S,4S) or (1R,2R)(3S,4S) or (1S,2S)(3S,4S) or (1S,2R)(3R,4R) or (1R,2S)(3R,4R) or (1R,2R)(3R,4R) or (1S,2S)(3R,4R) 2-(4-{6-chloro-2-[(1-cyclopropyl-5-methyl-1H-pyrazol-4-yl)amino]quinazolin-7-yl}-3-fluoropiperidin-1-yl)cyclopentan-1-ol]",>9.20
12,"Cc1cc2cnc(Nc3cnn(C4CC4)c3Cl)nc2cc1[C@@H]1CCN(C2COC[C@@H]2O)C[C@H]1F (single isomer, unassigned) [Ex-4.135, (3S,4S)(3S,4S) or (3S,4S)(3R,4R) or (3R,4R)(3S,4S) or (3R,4R)(3R,4R) 4-(4-{2-[(5-chloro-1-cyclopropyl-1H-pyrazol-4-yl)amino]-6-methylquinazolin-7-yl}-3-fluoropiperidin-1-yl)oxolan-3-ol]",>9.20
13,"Cc1nsc(Nc2ncc3cc(Cl)c([C@@H]4CCN(C5CCOC5)C[C@H]4F)cc3n2)c1Cl (single isomer, unassigned) [Ex-8.21, (3S,4S)(S) or (3S,4S)(R) or (3R,4R)(S) or (3R,4R)(R) 6-chloro-N-(4-chloro-3-methyl-1,2-thiazol-5-yl)-7-[3-fluoro-1-(oxolan-3-yl)piperidin-4-yl]quinazolin-2-amine]",8.44
14,"Cc1c(Nc2ncc3cc(Cl)c(C4CCN(C5COC5)CC4)cc3n2)cnn1CCF [Ex-4.54, 6-chloro-N-[1-(2-fluoroethyl)-5-methyl-1H-pyrazol-4-yl]-7-[1-(oxetan-3-yl)piperidin-4-yl]quinazolin-2-amine]",>9.20
15,"CC(C)(Cn1ncc(Nc2ncc3cc(Cl)c(C4CCN(C5COC5)CC4)cc3n2)c1Cl)OC(F)F [Ex-2.13, 6-chloro-N-{5-chloro-1-[2-(difluoromethoxy)-2-methylpropyl]-1H-pyrazol-4-yl}-7-[1-(oxetan-3-yl)piperidin-4-yl]quinazolin-2-amine]",9.15
16,"Cc1cc2cnc(Nc3cnn(C45CC(C4)C5)c3Cl)nc2cc1[C@@H]1CCN([C@H]2COC[C@H]2O)C[C@H]1F (single isomer, unassigned) [Ex-8.34, (3S,4S)(3S,4S) or (3S,4S)(3R,4R) or (3R,4R)(3S,4S) or (3R,4R)(3R,4R) 4-[4-(2-{[1-(bicyclo[1.1.1]pentan-1-yl)-5-chloro-1H-pyrazol-4-yl]amino}-6-methylquinazolin-7-yl)-3-fluoropiperidin-1-yl]oxolan-3-ol]",>9.20
17,"Cc1c(Nc2ncc3cc(Cl)c(C4CCN(C5COCC5C#N)CC4)cc3n2)cnn1C1CC1 (single isomer, unassigned) [Ex-2.50, (3S,4S) or (3R,4R) or (3S,4R) or (3R,4S) 4-(4-{6-chloro-2-[(1-cyclopropyl-5-methyl-1H-pyrazol-4-yl)amino]quinazolin-7-yl}piperidin-1-yl)oxolane-3-carbonitrile]",9.13
18,"OC1CCCC1N1CC[C@H](c2cc3nc(Nc4cnn(C5CC5)c4Cl)ncc3cc2Cl)[C@@H](F)C1 (single isomer, unassigned) [Ex-4.158, (1S,2R)(3S,4S) or (1R,2S)(3S,4S) or (1R,2R)(3S,4S) or (1S,2S)(3S,4S) or (1S,2R)(3R,4R) or (1R,2S)(3R,4R) or (1R,2R)(3R,4R) or (1S,2S)(3R,4R) 2-(4-{6-chloro-2-[(5-chloro-1-cyclopropyl-1H-pyrazol-4-yl)amino]quinazolin-7-yl}-3-fluoropiperidin-1-yl)cyclopentan-1-ol]",8.99
19,"Cc1c(Nc2ncc3cc(Cl)c(C4CCN([C@H]5COC[C@H]5O)CC4)cc3n2)cnn1C1CC1(F)F (single isomer, unassigned) [Ex-4.183, (R)(3S,4S) or (S)(3S,4S) or (R)(3R,4R) or (S)(3R,4R) 4-[4-(6-chloro-2-{[1-(2,2-difluorocyclopropyl)-5-methyl-1H-pyrazol-4-yl]amino}quinazolin-7-yl)piperidin-1-yl]oxolan-3-ol]",>9.20
20,"Cc1c(Nc2ncc3cc(Cl)c(C4CCN(C[C@H](O)c5cc(F)ccc5F)CC4)cc3n2)cnn1C1CC1 [Ex-4.204, (1R)-2-(4-{6-chloro-2-[(1-cyclopropyl-5-methyl-1H-pyrazol-4-yl)amino]quinazolin-7-yl}piperidin-1-yl)-1-(2,5-difluorophenyl)ethan-1-ol]",7.67

# Same assay, conditions: G2019S LRRK2, 134 μM ATP (Km ATP), mean values; read-out: LRRK2 pIC50 (converted)
row,Structure (SMILES),IC50
1,"CC(C)(O)CN1CCC(c2cc3nc(Nc4cnn(C5CC5)c4)ncc3cc2Cl)C1 (single isomer, unassigned) [Ex-1.9, (S) or (R) 1-(3-{6-chloro-2-[(1-cyclopropyl-1H-pyrazol-4-yl)amino]quinazolin-7-yl}pyrrolidin-1-yl)-2-methylpropan-2-ol]",30.2 nM
2,"Clc1cc2cnc(Nc3cnn(C4CC4)c3Cl)nc2cc1C1CCN(C2COC2)C1 (single isomer, unassigned) [Ex-4.33, (S) or (R) 6-chloro-N-(5-chloro-1-cyclopropyl-1H-pyrazol-4-yl)-7-[1-(oxetan-3-yl)pyrrolidin-3-yl]quinazolin-2-amine]",8.13 nM
